Laboratory results: PMC7813677 (Frontiers in Bioengineering and Biotechnology, 2021)
Non-standard residues stand in square brackets, D forms with d. Residues, ends and D or L forms follow the SMILES beside them.

Test: Dissolution of the peptide in water
Format: physicochemical
Settings: before addition of saline buffer pH 7.4
Method: Gels were prepared by dissolving lyophilized peptide in water to obtain 2X concentrated (wt%) peptide stock solution. Peptide assembly was initiated by mixing together equal volumes of peptide stock solution and chilled 2X HEPES buffer solution (150 mM HEPES, 300 mM NaCl, pH 7.4) on ice. The final mixed solution (1X wt% peptide in 75 mM HEPES, 150 mM NaCl, pH 7.4) was then incubated for 2 h at 37°C, resulting with a self-supporting gel.

SMILES: CC(C)[C@H](N)C(=O)N[C@@H](CCCCN)C(=O)N[C@H](C(=O)N[C@@H](CCCCN)C(=O)N[C@H](C(=O)N[C@@H](CCCCN)C(=O)N[C@H](C(=O)N[C@@H](CCCCN)C(=O)N[C@H](C(=O)N1CCC[C@@H]1C(=O)N1CCC[C@H]1C(=O)N[C@H](C(=O)N[C@@H](CCCCN)C(=O)N[C@H](C(=O)N[C@@H](Cc1ccc(O)cc1)C(=O)N[C@H](C(=O)N[C@@H](CCCCN)C(=O)N[C@H](C(=O)N[C@@H](CCCCN)C(=O)N[C@H](C(N)=O)C(C)C)C(C)C)C(C)C)C(C)C)[C@@H](C)O)C(C)C)C(C)C)C(C)C)C(C)C [tyrosine-functionalized peptide] (H-VKVKVKVKV[dP]PTKVYVKVKV-NH2)
- Solubility in water: readily dissolved in water
